Data set [1] deals with carrageenan-induced paw oedema. Put plainly: Carrageenan-induced paw oedema in rat. Type of data set: in vivo. The conditions noted are these: peptides 15 mg/kg ip, indomethacin 5 mg/kg ip, paw volume at 1, 2, 4, 6 h, p<0.001. As for the experimental part:
In this analysis, peptide Ac-(06-259-02)-Sar3-(D-Arg)2 (referred to in this study as Bicycle 3; see Example 2 herein) was assessed comparatively against the peptide Ac-(06-34-18) Phe2 Aze3 Tyr4 HArg5 Ala(ψCH2NH)6 (referred to in this study as Bicycle 2 and which is disclosed in Table 26b and FIG. 22 of PCT/EP2014/057440). Inflammation was induced in male Sprague-Dawley rats (n=10 per group) by injection of 100 μL of 1% carrageenan solution in the subplantar region of the right hind paw. Animals received treatment with the peptides and indomethacin according to Table 10:
At 1, 2, 4 and 6 hours after carrageenan administration, paw volume was measured by water displacement method. Statistical analysis was conducted using 2-way ANOVA with repeated measures (GraphPad Prism).
For orientation: The carrageenan paw model is a standard test of acute inflammation.

Another data set addresses rabbit kallikrein (Oryctolagus cuniculus, UniProt G1T127). Put plainly: Functional enzyme assay, inhibition of rabbit kallikrein. It counts as biochemical. In a few lines: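 Buffer 10 mM Tris HCl, 150 mM NaCl, 10 mM MgCl2, 1 mM CaCl2, 1 mg/mL BSA, pH 7.4, 25° C. AMC release read at ex 360/em 460 nm; linear-phase rate (typically 5–45 min) fitted by four-parameter non-linear regression for IC50, with Ki also derived.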

The nature of data set [2]: Intravenous pharmacokinetics in rat. It counts as in vivo. As for the experimental part:
Peptides used for the pharmacokinetic studies in Example 4 were lyophilised from 10 mM HCl in water 3 times to afford the hydrochloride salts of the compounds. Solutions were dosed by intravenous bolus at 1 mg/mL in 50 mM Hepes pH 7.0, 5% glycerol, 1.9% DMSO for two compounds (Ac-(06-550) Aze3 HArg5 Sar3-(D-Arg2)) and (06-259-02)-Sar3-(D-Arg2)) at 5 mg/kg in Spraguely Dawely rats. Serial blood samples (˜0.2 mL) were taken into EDTA tubes at the indicated time points, and plasma was separated by centrifugation, and frozen at −20 C for analysis. Employing standard bioanalytical techniques, plasma samples were then analysed and quantified for parent remaining compound using a Waters, Xevo TQS LC-MS. PK parameters were determined using the software package PK Solutions 2.0 from Summit Research Services.
Peptides Ac-(06-550)-Sar3-(D-Arg)2Aze3 HArg5 (which contains the stabilising and affinity enhancing modifications Aze3 and HArg5, and a solubilising C-terminal extension Sar3-(D-Arg)2) (SEQ ID NO: 98) and Ac-(06-259-02)-Sar3-(D-Arg)2 were selected for pharmacokinetic assessment in rat. Peptides were injected intravenously in buffered solution at 1 mg/mL at 5 mg/kg Sprague Dawley rats, and blood was sampled and analysed for peptide concentrations at a number of time points post injection.

pKi: −log10 of the molar value. *1 amine or outer side, *2 acyl side, *3 side chain or, on linkers, in order; H or OH if unused. Where a SMILES comes first, the peptide text is derived from it. Bridges are numbered along the chain shown (N, C = ends). [ ]: non-standard residue; d: D form. TBMB = c1c(C[*:1])cc(C[*:3])cc1C[*:2]; Sar = CNCC(=O)O

rabbit kallikrein, sequence (G1T127 20-629): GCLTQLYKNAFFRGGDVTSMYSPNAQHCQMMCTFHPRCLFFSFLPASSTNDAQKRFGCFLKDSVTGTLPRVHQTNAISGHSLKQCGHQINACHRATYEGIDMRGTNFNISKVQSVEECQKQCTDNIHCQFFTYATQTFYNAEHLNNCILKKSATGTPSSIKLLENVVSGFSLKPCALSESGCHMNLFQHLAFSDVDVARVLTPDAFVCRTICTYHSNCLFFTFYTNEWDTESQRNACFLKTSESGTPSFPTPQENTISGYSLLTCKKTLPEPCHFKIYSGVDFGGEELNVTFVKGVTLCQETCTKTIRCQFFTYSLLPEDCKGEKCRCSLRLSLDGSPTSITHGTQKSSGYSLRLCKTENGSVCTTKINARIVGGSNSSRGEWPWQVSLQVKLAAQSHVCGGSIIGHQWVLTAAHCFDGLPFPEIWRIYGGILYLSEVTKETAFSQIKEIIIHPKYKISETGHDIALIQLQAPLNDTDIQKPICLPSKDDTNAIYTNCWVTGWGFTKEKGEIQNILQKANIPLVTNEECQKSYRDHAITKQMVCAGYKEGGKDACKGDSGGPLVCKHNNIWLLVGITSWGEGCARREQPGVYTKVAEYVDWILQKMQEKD

Consider `CC(=O)N[C@H]1CSCc2cc3cc(c2)CSC[C@H](NC(=O)[C@H](Cc2c[nH]c4ccccc24)NC(=O)[C@@H]2CCCN2C(=O)[C@H](CC(N)=O)NC(=O)[C@H](Cc2c[nH]c4ccccc24)NC(=O)[C@H]([C@@H](C)O)NC(=O)[C@H](CC(N)=O)NC1=O)C(=O)N1CCC[C@H]1C(=O)N[C@@H](Cc1c[nH]c2ccccc12)C(=O)N[C@@H](CC(=O)O)C(=O)N[C@@H](C)C(=O)N1CCC[C@H]1C(=O)N[C@@H](CC(C)C)C(=O)N[C@H](C(=O)N[C@@H](C)C(=O)N(C)CC(=O)N(C)CC(=O)N(C)CC(=O)N[C@H](CCCNC(=N)N)C(=O)N[C@H](CCCNC(=N)N)C(N)=O)CSC3` [Ac-(06-259-02)-Sar3-(DArg2)] (Ac-CNTWNPWCPWDAPLCA[Sar][Sar][Sar][dR][dR]-NH2; linker 1-8-15 via TBMB), for which the “effect on paw swelling induced by carrageenan” value in data set [1] is given as “inhibited the paw swelling induced by carrageenan at all timepoints”. On rabbit kallikrein, the pKi (usually the negative decadic logarithm of the Ki, by convention in mol/L) was 5.84. Moreover, the “stability in the rat circulation” value in data set [2] (FIG. 4, rat, iv, in words) was “marked stability in the rat circulation”. Also, in data set [2] (in vivo, Table 8, Sprague Dawley rat, iv 5 mg/kg), the clearance (usually the rate of elimination divided by the concentration) was 7.2 mL/min/kg. The Vd in data set [2] (in vivo, Table 8, Sprague Dawley rat, iv 5 mg/kg, read-out: Vss) came to 0.8 L/kg. In addition, in data set [2] (in vivo, Table 8, Sprague Dawley rat, iv 5 mg/kg, read-out: t1/2 elimination), the half-life worked out at 1.3 h.
